Results as given in ChEMBL document CHEMBL3769343, “Spiromastilactones: A new class of influenza virus inhibitors from deep-sea fungus” (Eur J Med Chem, 2016).

How the values were obtained:
Assay type in all cases: functional, organism-based
Influenza A virus [1] = test: Antiviral activity against oseltamivir-resistant influenza A virus LN/1109 (H1N1) infected in dog MDCK cells assessed as inhibition of virus induced cytopathic effect after 40 hrs by Cell-Titer-Glo assay
Influenza A virus [2] = test: Antiviral activity against amantadine-resistant influenza A virus JX/312 (H3N2) infected in dog MDCK cells assessed as inhibition of virus induced cytopathic effect after 40 hrs by Cell-Titer-Glo assay
Influenza A virus [3] = test: Antiviral activity against amantadine-resistant influenza A virus HN/1222 (H3N2) infected in dog MDCK cells assessed as inhibition of virus induced cytopathic effect after 40 hrs by Cell-Titer-Glo assay

With `CCOC(=O)C1=C[C@@H](OC(CC)CC)[C@H](NC(C)=O)[C@@H](N)C1` [OSELTAMIVIR] the EC50 (Influenza A virus [1]) was 0.82 µM, the EC50 (Influenza A virus [2]) was 9.75 µM and the EC50 (Influenza A virus [3]) was > 200 µM.
With `NC12CC3CC(CC(C3)C1)C2` [AMANTADINE] the EC50 (Influenza A virus [1]) was > 200 µM, the EC50 (Influenza A virus [2]) was 4.28 µM and the EC50 (Influenza A virus [3]) was > 20.5 µM.
`CCCc1c(Cl)c(O)cc(OC)c1Oc1c(Cl)c(O)c(Cl)c2c1C(=O)O[C@@H]2CC` showed an EC50 (Influenza A virus [1]) of 33.5 µM, an EC50 (Influenza A virus [2]) of 35.3 µM and an EC50 (Influenza A virus [3]) of 38.5 µM.
`NC(=O)c1ncn([C@@H]2O[C@H](CO)[C@@H](O)[C@H]2O)n1` [RIBAVIRIN] showed an EC50 (Influenza A virus [1]) of 1.05 µM, an EC50 (Influenza A virus [2]) of 1.43 µM and an EC50 (Influenza A virus [3]) of 3.56 µM.
